Source: patent publication US11912682B2, “Isoindolinone compounds” (Monte Rosa Therapeutics, Inc., priority 2021, dated 2024)
Read-outs that look alike come from different tables or passages of the source.

Biological target: GSPT1 (Homo sapiens (Human), UniProt P15170+Q96SW2)
Assay: immunofluorescence assay for GSPT1 degradation in CAL-51 cells (Example 10)
Type: cell-based
Conditions: read-out: IF Class (GSPT1 degradation DC50)
Method: The representative compounds were tested in an immunofluorescence assay for their activity to degrade GSPT1. […] Compounds were stored at 10 mM DMSO stocks. […] Cells were subsequently rinsed with PBS and fixed in 10% Formalin solution (50 μl, Sigma HT5011)) for 20 mins at room temperature. […] Following three further PBS washes, 50 μL blocking buffer (1% BSA, Sigma A4503, in PBS) was added for 45 min for signal-to noise reduction. Primary antibody (human GSPT1, Sigma HPA052488) was diluted in blocking buffer (dil.1/300, 35 μL/well) and incubated with the cells overnight at 4° C. […] After three final PBS washes, samples were conserved in 100 μL PBS in the dark, until measurement. Image acquisition was performed on the Operetta High-Content Imager (Perkin-Elmer). […] For the determination of GSPT1 DC50 values, a custom algorithm implemented in the PerkinElmer image analysis software Harmony-Acapella® was developed. After user-defined setting of adjustment parameters, the analysis was run identically without human intervention for all image fields. DAPI staining of the nuclei was used to determine the location of cells using standard nuclei detection modules. Segmentation artifacts were removed by threshold-based filters for area, roundness and intensity. The outline of the cells was determined analogously from the sum of the normalized, smoothed DAPI and Actin channel, starting from each nucleus. […] GSPT1 degradation (DC50) was calculated after normalization to controls and data import in CDD vault Database, using non-linear regression.

GSPT1, sequence (P15170 whole entry): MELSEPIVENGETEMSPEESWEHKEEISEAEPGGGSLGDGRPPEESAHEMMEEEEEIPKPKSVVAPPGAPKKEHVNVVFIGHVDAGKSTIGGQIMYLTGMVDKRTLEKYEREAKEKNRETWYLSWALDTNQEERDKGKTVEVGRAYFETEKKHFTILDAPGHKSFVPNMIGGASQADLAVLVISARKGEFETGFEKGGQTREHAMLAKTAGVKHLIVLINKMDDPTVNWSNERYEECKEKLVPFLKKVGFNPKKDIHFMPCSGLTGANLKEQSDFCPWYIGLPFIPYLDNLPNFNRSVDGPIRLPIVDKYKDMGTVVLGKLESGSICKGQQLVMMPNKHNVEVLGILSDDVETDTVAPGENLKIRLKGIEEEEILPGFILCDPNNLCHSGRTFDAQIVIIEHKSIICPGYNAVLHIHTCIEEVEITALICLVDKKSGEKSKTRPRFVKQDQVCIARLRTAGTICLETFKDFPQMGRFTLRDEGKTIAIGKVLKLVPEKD
GSPT1, sequence (Q96SW2 whole entry): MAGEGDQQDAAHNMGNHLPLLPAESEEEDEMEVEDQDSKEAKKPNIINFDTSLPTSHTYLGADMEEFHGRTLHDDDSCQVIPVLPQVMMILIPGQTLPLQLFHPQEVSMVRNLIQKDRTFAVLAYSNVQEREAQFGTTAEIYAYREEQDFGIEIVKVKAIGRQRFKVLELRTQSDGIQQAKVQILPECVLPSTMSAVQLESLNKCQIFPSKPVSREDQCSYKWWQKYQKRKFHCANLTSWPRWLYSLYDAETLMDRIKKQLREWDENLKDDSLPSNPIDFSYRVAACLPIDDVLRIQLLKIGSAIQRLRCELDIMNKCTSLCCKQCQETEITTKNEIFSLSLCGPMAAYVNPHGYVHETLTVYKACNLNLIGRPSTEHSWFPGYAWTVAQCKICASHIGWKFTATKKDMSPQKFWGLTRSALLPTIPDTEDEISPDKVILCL
GSPT1, sequence (Q16531 2-1140 partner): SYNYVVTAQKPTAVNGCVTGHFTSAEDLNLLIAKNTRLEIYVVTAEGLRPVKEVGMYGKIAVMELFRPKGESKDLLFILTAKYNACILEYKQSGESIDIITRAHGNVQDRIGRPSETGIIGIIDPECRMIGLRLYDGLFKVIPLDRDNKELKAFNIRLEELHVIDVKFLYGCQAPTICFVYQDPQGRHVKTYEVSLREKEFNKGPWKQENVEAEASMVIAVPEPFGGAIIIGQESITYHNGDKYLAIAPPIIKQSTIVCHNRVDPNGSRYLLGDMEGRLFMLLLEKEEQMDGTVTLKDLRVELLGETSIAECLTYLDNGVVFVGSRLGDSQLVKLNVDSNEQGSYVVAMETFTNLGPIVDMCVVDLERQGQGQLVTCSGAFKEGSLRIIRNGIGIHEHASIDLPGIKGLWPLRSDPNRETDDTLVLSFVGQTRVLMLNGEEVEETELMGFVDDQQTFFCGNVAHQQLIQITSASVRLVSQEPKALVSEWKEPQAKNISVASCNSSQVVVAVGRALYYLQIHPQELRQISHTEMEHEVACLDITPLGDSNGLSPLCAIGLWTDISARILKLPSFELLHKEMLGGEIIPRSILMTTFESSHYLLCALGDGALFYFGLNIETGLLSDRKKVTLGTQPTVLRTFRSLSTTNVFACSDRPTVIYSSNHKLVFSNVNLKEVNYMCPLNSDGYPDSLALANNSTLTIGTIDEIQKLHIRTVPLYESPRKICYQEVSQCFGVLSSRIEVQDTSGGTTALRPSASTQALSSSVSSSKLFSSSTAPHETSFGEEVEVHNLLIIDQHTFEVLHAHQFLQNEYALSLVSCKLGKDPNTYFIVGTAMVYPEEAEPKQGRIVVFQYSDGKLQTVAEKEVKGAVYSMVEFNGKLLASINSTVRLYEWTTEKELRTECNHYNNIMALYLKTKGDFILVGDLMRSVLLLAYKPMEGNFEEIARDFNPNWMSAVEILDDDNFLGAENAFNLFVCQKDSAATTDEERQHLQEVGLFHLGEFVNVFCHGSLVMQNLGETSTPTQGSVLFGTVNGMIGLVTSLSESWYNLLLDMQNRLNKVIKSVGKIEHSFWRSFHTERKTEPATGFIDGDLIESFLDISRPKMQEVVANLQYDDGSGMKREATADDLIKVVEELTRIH

CC1(c2ccc(NC(=O)OCc3ccc4c(c3)C(=O)N(C3CCC(=O)NC3=O)C4)cc2F)COC1 (stereo not shown) [Compound 240, (2-(2,6-dioxopiperidin-3-yl)-3-oxoisoindolin-5-yl)methyl (3-fluoro-4-(3-methyloxetan-3-yl)phenyl)carbamate]
DC50 (CAL-51 cells, 6 h): 30 to 300 nM

CCc1cccc(NC(=O)OCc2ccc3c(c2)C(=O)N(C2CCC(=O)NC2=O)C3)c1 (stereo not shown) [Compound 220, (2-(2,6-dioxopiperidin-3-yl)-3-oxoisoindolin-5-yl)methyl (3-ethylphenyl)carbamate]
DC50 (CAL-51 cells, 6 h): < 30 nM

CCCOc1ccc(F)c(NC(=O)OCc2ccc3c(c2)C(=O)N(C2CCC(=O)NC2=O)C3)c1 (stereo not shown) [Compound 226, (2-(2,6-dioxopiperidin-3-yl)-3-oxoisoindolin-5-yl)methyl (2-fluoro-5-propoxyphenyl)carbamate]
DC50 (CAL-51 cells, 6 h): 30 to 300 nM

Cc1cc(F)c(NC(=O)OCc2ccc3c(c2)C(=O)N(C2CCC(=O)NC2=O)C3)c(F)c1Cl (stereo not shown) [Compound 211, (2-(2,6-dioxopiperidin-3-yl)-3-oxoisoindolin-5-yl)methyl (3-chloro-2,6-difluoro-4-methylphenyl)carbamate]
DC50 (CAL-51 cells, 6 h): 30 to 300 nM

CC(C)Oc1ccc(F)c(NC(=O)OCc2ccc3c(c2)C(=O)N(C2CCC(=O)NC2=O)C3)c1 (stereo not shown) [Compound 221, (2-(2,6-dioxopiperidin-3-yl)-3-oxoisoindolin-5-yl)methyl (2-fluoro-5-isopropoxyphenyl)carbamate]
DC50 (CAL-51 cells, 6 h): 30 to 300 nM

O=C1CCC(N2Cc3ccc(COC(=O)Nc4cc(OC(F)(F)F)c(F)cc4F)cc3C2=O)C(=O)N1 (stereo not shown) [Compound 200, (2-(2,6-dioxopiperidin-3-yl)-3-oxoisoindolin-5-yl)methyl (2,4-difluoro-5-(trifluoromethoxy)phenyl)carbamate]
DC50 (CAL-51 cells, 6 h): 30 to 300 nM

Cc1cc(NC(=O)OCc2ccc3c(c2)C(=O)N(C2CCC(=O)NC2=O)C3)cc(Cl)c1C#N (stereo not shown) [Compound 177, (2-(2,6-diox opiperidin-3-yl)-3-oxoisoindolin-5-yl)methyl(3-chloro-4-cyano-5-methylphenyl)carbamate]
DC50: 30 to 300 nM

O=C1CCC(N2Cc3ccc(COC(=O)Nc4cc(F)c(OC(F)F)c(F)c4)cc3C2=O)C(=O)N1 (stereo not shown) [Compound 206, (2-(2,6-dioxopiperidin-3-yl)-3-oxoisoindolin-5-yl) methyl (4-(difluoromethoxy)-3,5-difluorophenyl)carbamate]
DC50 (CAL-51 cells, 6 h): 30 to 300 nM

O=C1CCC(N2Cc3ccc(COC(=O)Nc4cccc(OC(F)(F)F)c4F)cc3C2=O)C(=O)N1 (stereo not shown) [Compound 169]
DC50 (CAL-51 cells, 6 h): 30 to 300 nM

O=C1CCC(N2Cc3ccc(COC(=O)Nc4cc(F)c5c(c4)CCO5)cc3C2=O)C(=O)N1 (stereo not shown) [Compound 212, (2-(2,6-dioxopiperidin-3-yl)-3-oxoisoindolin-5-yl)methyl (7-fluoro-2,3-dihydrobenzofuran-5-yl)carbamate]
DC50 (CAL-51 cells, 6 h): < 30 nM

O=C1CCC(N2Cc3ccc(COC(=O)Nc4cc(OC(F)F)c(F)cn4)cc3C2=O)C(=O)N1 (stereo not shown) [Compound 227, (2-(2,6-dioxopiperidin-3-yl)-3-oxoisoindolin-5-yl)methyl (4-(difluoromethoxy)-5-fluoropyridin-2-yl)carbamate]
DC50 (CAL-51 cells, 6 h): > 300 nM

C[C@@H]1CCCN1c1cnc(NC(=O)OCc2ccc3c(c2)C(=O)N(C2CCC(=O)NC2=O)C3)c(F)c1 (stereo partly drawn) [Compound 232, (2-(2,6-dioxopiperidin-3-yl)-3-oxoisoindolin-5-yl)methyl (3-fluoro-5-((R)-2-methylpyrrolidin-1-yl)pyridin-2-yl)carbamate]
DC50 (CAL-51 cells, 6 h): 30 to 300 nM

CCOc1cc(NC(=O)OCc2ccc3c(c2)C(=O)N(C2CCC(=O)NC2=O)C3)c(F)cc1C (stereo not shown) [Compound 228]
DC50 (CAL-51 cells, 6 h): < 30 nM

CC(F)(F)c1ccc(F)c(NC(=O)OCc2ccc3c(c2)C(=O)N(C2CCC(=O)NC2=O)C3)c1 (stereo not shown) [Compound 234]
DC50 (CAL-51 cells, 6 h): > 300 nM

Cc1ccc(NC(=O)OCc2ccc3c(c2)C(=O)N(C2CCC(=O)NC2=O)C3)c(F)c1Cl (stereo not shown) [Compound 179, (2-(2,6-dioxopiperidin-3-yl)-3-oxoisoindolin-5-yl) methyl (3-chloro-2-fluoro-4-methylphenyl)carbamate]
DC50 (CAL-51 cells, 6 h): < 30 nM

CC(C)(C)[C@H]1C[C@@H](NC(=O)OCc2ccc3c(c2)C(=O)N(C2CCC(=O)NC2=O)C3)C1 (stereo partly drawn) [Compound 184, cis-(2-(2,6-dioxopiperidin-3-yl)-3-oxoisoindolin-5-yl)methyl ((1s,3s)-3-(tert-butyl)cyclobutyl)carbamate]
DC50 (CAL-51 cells, 6 h): > 300 nM

O=C1CCC(N2Cc3ccc(COC(=O)NC4CN(Cc5ccccc5)C4)cc3C2=O)C(=O)N1 (stereo not shown) [Compound 168]
DC50 (CAL-51 cells, 6 h): > 300 nM

O=C1CCC(N2Cc3ccc(COC(=O)Nc4ccc(C5CCC5)cc4F)cc3C2=O)C(=O)N1 (stereo not shown) [Compound 164, (2-(2,6-dioxopiperidin-3-yl)-3-oxoisoindolin-5-yl)methyl (4-cyclobutyl-2-fluorophenyl)carbamate]
DC50 (CAL-51 cells, 6 h): > 300 nM

O=C1CCC(N2Cc3ccc(COC(=O)NC45CC(N6CCOCC6)(C4)C5)cc3C2=O)C(=O)N1 (stereo not shown) [Compound 215, (2-(2,6-dioxopiperidin-3-yl)-3-oxoisoindolin-5-yl)methyl (3-morpholinobicyclo[1.1.1]pentan-1-yl)carbamate]
DC50 (CAL-51 cells, 6 h): > 300 nM

CC(C)(C)[C@H]1C[C@H](NC(=O)OCc2ccc3c(c2)C(=O)N(C2CCC(=O)NC2=O)C3)C1 (stereo partly drawn) [Compound 185, trans-(2-(2,6-dioxopiperidin-3-yl)-3-oxoisoindolin-5-yl)methyl ((1s,3s)-3-(tert-butyl)cyclobutyl)carbamate]
DC50 (CAL-51 cells, 6 h): > 300 nM

O=C1CCC(N2Cc3ccc(COC(=O)NC45CC(F)(C4)C5)cc3C2=O)C(=O)N1 (stereo not shown) [Compound 190]
DC50 (CAL-51 cells, 6 h): > 300 nM

O=C1CCC(N2Cc3ccc(COC(=O)Nc4cccc(C5CC5)c4)cc3C2=O)C(=O)N1 (stereo not shown) [Compound 216, (2-(2,6-dioxopiperidin-3-yl)-3-oxoisoindolin-5-yl)methyl (3-cyclopropylphenyl)carbamate]
DC50 (CAL-51 cells, 6 h): < 30 nM

O=C1CCC(N2Cc3ccc(COC(=O)Nc4ccc(C(O)C(F)(F)F)nc4)cc3C2=O)C(=O)N1 (stereo not shown) [Compound 238]
DC50 (CAL-51 cells, 6 h): > 300 nM

Cc1cc(F)c(NC(=O)OCc2ccc3c(c2)C(=O)N(C2CCC(=O)NC2=O)C3)c(F)c1 (stereo not shown) [Compound 166, (2-(2,6-dioxopiperidin-3-yl)-3-oxoisoindolin-5-yl)methyl (2,6-difluoro-4-methylphenyl)carbamate]
DC50 (CAL-51 cells, 6 h): > 300 nM

COC(=O)C12CC(NC(=O)OCc3ccc4c(c3)C(=O)N(C3CCC(=O)NC3=O)C4)(C1)C2 (stereo not shown) [Compound 203, methyl 3-((((2-(2,6-dioxopiperidin-3-yl)-3-oxoisoindolin-5-yl)methoxy)carbonyl)amino)bicyclo[1.1.1]pentane-1-carboxylate]
DC50 (CAL-51 cells, 6 h): > 300 nM

CC(C)(O)c1ccc(NC(=O)OCc2ccc3c(c2)C(=O)N(C2CCC(=O)NC2=O)C3)cc1 (stereo not shown) [Compound 195, (2-(2,6-dioxopiperidin-3-yl)-3-oxoisoindolin-5-yl)methyl (4-(2-hydroxypropan-2-yl)phenyl)carbamate]
DC50 (CAL-51 cells, 6 h): > 300 nM

O=C1CCC(N2Cc3ccc(COC(=O)Nc4ccc(F)c(OC(F)F)c4F)cc3C2=O)C(=O)N1 (stereo not shown) [Compound 191, (2-(2,6-dioxopiperidin-3-yl)-3-oxoisoindolin-5-yl)methyl (3-(difluoromethoxy)-2,4-difluorophenyl) carbamate]
DC50 (CAL-51 cells, 6 h): 30 to 300 nM

C[C@@H]1CCCN1c1ccc(NC(=O)OCc2ccc3c(c2)C(=O)N(C2CCC(=O)NC2=O)C3)nc1 (stereo partly shown) [Compound 192]
DC50 (CAL-51 cells, 6 h): 30 to 300 nM
